# Assay results as given in ChEMBL document CHEMBL1201862, “PubChem BioAssay data set” (2004).
# Where a name gives a salt, the structure may show the parent alone.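 How tested: cells in 96-well plates exposed to compound for 48 hours at five concentrations. The concentration for 50% growth inhibition is given as GI50.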 Activity calls are given as the source filed them. No stated cut-off is given here; in the data, active = GI50 up to about 1.1 µM and inactive = higher.
# How the values were obtained:
# Test in all cases: NCI tumour cell line growth inhibition, 48 h
# NCI-H226 = system: NCI-H226
# NCI-H23 = system: NCI-H23
# HT-29 = system: HT-29
# TK-10 = system: TK-10
# M14 = system: M14
# SF-539 = system: SF-539
# SK-MEL-28 = system: SK-MEL-28
# HCT-15 = system: HCT-15
# OVCAR-5 = system: OVCAR-5
# OVCAR-3 = system: OVCAR-3
# OVCAR-4 = system: OVCAR-4
# SR = system: SR
# NCI-H522 = system: NCI-H522
# MDA-N = system: MDA-N
# MCF7 = system: MCF7
# CAKI-1 = system: CAKI-1
# ACHN = system: ACHN
# SNB-75 = system: SNB-75
# SK-OV-3 = system: SK-OV-3
# SK-MEL-2 = system: SK-MEL-2
Structure (SMILES),GI50 (NCI-H226),GI50 (NCI-H23),GI50 (HT-29),GI50 (TK-10),GI50 (M14),GI50 (SF-539),GI50 (SK-MEL-28),GI50 (HCT-15) [µM],GI50 (OVCAR-5),GI50 (OVCAR-3),GI50 (OVCAR-4),GI50 (SR),GI50 (NCI-H522),GI50 (MDA-N),GI50 (MCF7),GI50 (CAKI-1),GI50 (ACHN),GI50 (SNB-75),GI50 (SK-OV-3),GI50 (SK-MEL-2)
CC(=O)OCC1OC(OCCCOP(=O)(OCCC#N)OCC2OC(n3cnc4c(N)ncnc43)C(OC(=O)c3ccccc3)C2OC(=O)c2ccccc2)C(OC(C)=O)C(OC(C)=O)C1OC(C)=O (stereo not given),> 100 µM (inactive),> 100 µM (inactive),> 100 µM (inactive),> 100 µM (inactive),> 100 µM (inactive),> 100 µM (inactive),> 100 µM (inactive),> 100,> 100 µM (inactive),> 100 µM (inactive),> 100 µM (inactive),> 100 µM (inactive),16.3 µM (inactive),> 100 µM (inactive),> 100 µM (inactive),> 100 µM (inactive),> 100 µM (inactive),> 75 µM (inactive),> 100 µM (inactive),> 100 µM (inactive)
COc1ccc2c(c1)c1c3c(ccc4ncn2c43)N(CCN(C)C)CCN=1,1.14 µM (inactive),0.968 µM (active),0.135 µM (active),1.49 µM (inactive),0.895 µM (active),0.362 µM (active),0.897 µM (active),0.303,0.676 µM (active),0.538 µM (active),0.309 µM (active),0.0302 µM (active),0.19 µM (active),0.438 µM (active),0.288 µM (active),1.71 µM (inactive),0.701 µM (active),0.764 µM (active),0.908 µM (active),1.03 µM (active)
CCOC(=O)c1cc(C2CCN(c3ccccc3)C2=O)c(C(=O)/C=C(/C)O)[nH]1 (stereo not given),> 100 µM (inactive),55.6 µM (inactive),> 100 µM (inactive),> 100 µM (inactive),> 100 µM (inactive),8.38 µM (inactive),> 100 µM (inactive),51.6,> 100 µM (inactive),> 100 µM (inactive),63.8 µM (inactive),34.1 µM (inactive),67.5 µM (inactive),58.6 µM (inactive),59.8 µM (inactive),47.8 µM (inactive),> 100 µM (inactive),74.5 µM (inactive),96.4 µM (inactive),> 100 µM (inactive)
CCc1nc(N)nc(N)c1-c1ccc(NC)c([N+](=O)[O-])c1,28.6 µM (inactive),0.944 µM (active),0.44 µM (active),28.2 µM (inactive),0.959 µM (active),1.47 µM (inactive),43.7 µM (inactive),0.398,17.1 µM (inactive),10.7 µM (inactive),15.5 µM (inactive),0.327 µM (active),1.88 µM (inactive),0.173 µM (active),2.48 µM (inactive),0.767 µM (active),0.594 µM (active),10.8 µM (inactive),28.7 µM (inactive),21.2 µM (inactive)
CCOP(=O)(OCC)OC1c2[nH]cc(C(=O)OCc3ccccc3)c2-c2cc(C(=O)OC)[nH]c2C1OC (stereo not given),16.1 µM (inactive),13.4 µM (inactive),3.24 µM (inactive),4.91 µM (inactive),9.08 µM (inactive),8.45 µM (inactive),4.94 µM (inactive),3.25,37 µM (inactive),11.2 µM (inactive),6.15 µM (inactive),7.6 µM (inactive),6.53 µM (inactive),17.5 µM (inactive),8.67 µM (inactive),20.2 µM (inactive),4.66 µM (inactive),13.2 µM (inactive),17.7 µM (inactive),9.4 µM (inactive)
O=C(O)CSSCC(=O)O,> 100 µM (inactive),> 100 µM (inactive),> 100 µM (inactive),> 100 µM (inactive),> 100 µM (inactive),> 100 µM (inactive),> 100 µM (inactive),> 100,> 100 µM (inactive),> 100 µM (inactive),> 100 µM (inactive),> 100 µM (inactive),> 100 µM (inactive),> 100 µM (inactive),> 100 µM (inactive),> 100 µM (inactive),> 100 µM (inactive),> 100 µM (inactive),> 100 µM (inactive),> 100 µM (inactive)
COC(=O)C(=O)C(C(=O)C(N)=O)c1nc2ccc(C(=O)c3ccccc3)cc2nc1O (stereo not given),> 100 µM (inactive),> 10 µM (inactive),> 100 µM (inactive),> 100 µM (inactive),> 100 µM (inactive),87.1 µM (inactive),> 100 µM (inactive),55.7,> 100 µM (inactive),> 100 µM (inactive),28.6 µM (inactive),27.7 µM (inactive),40.7 µM (inactive),> 100 µM (inactive),63.8 µM (inactive),56 µM (inactive),63 µM (inactive),69 µM (inactive),> 100 µM (inactive),> 100 µM (inactive)
CCCCCCCCCCCCCOCCOCCOCCCCC(O)CCCCCCCCCC1=C[C@H](C)OC1=O (stereo not given in full),12.8 µM (inactive),13.7 µM (inactive),15.6 µM (inactive),2.94 µM (inactive),27.2 µM (inactive),18.7 µM (inactive),11.4 µM (inactive),19.1,28 µM (inactive),18.6 µM (inactive),12.3 µM (inactive),2.08 µM (inactive),0.0488 µM (active),15 µM (inactive),10.1 µM (inactive),19.1 µM (inactive),28.6 µM (inactive),21.1 µM (inactive),31.8 µM (inactive),23 µM (inactive)
Cc1ncc([N+](=O)[O-])n1CCNCCCCn1ccnc1[N+](=O)[O-],> 100 µM (inactive),> 100 µM (inactive),> 100 µM (inactive),> 100 µM (inactive),> 100 µM (inactive),> 100 µM (inactive),> 100 µM (inactive),> 100,> 100 µM (inactive),> 100 µM (inactive),> 100 µM (inactive),> 100 µM (inactive),> 100 µM (inactive),> 100 µM (inactive),> 100 µM (inactive),> 100 µM (inactive),> 100 µM (inactive),> 100 µM (inactive),> 100 µM (inactive),> 100 µM (inactive)
CN1CCC(CN2c3ccccc3Sc3ccccc32)C1 (stereo not given) [METHDILAZINE HYDROCHLORIDE],19.5 µM (inactive),20.3 µM (inactive),10.9 µM (inactive),17.6 µM (inactive),10.5 µM (inactive),16.8 µM (inactive),6.44 µM (inactive),16.2,16.7 µM (inactive),14.2 µM (inactive),13.9 µM (inactive),2.7 µM (inactive),16.7 µM (inactive),14.1 µM (inactive),17.2 µM (inactive),14.7 µM (inactive),14.7 µM (inactive),1.79 µM (inactive),17.3 µM (inactive),15.7 µM (inactive)
